Assay results published in patent US8518913B2, “Phosphorous derivatives as chemokine receptor modulators” (Allergan, Inc., priority 2010, dated 2013).
Read-outs that look alike come from different tables or passages of the source.

Molecular target: T1, CCR2 receptor (Homo sapiens, UniProt P41597)
T1 construct: expressed in transfected cells
Assay: CCR2 calcium activity assay on FLIPR Tetra in HEK-Gqi5 cells stably expressing CCR2
Assay type: cell-based
Experimental: HEK-Gqi5 cells stably expressing CCR2 were cultured in (DMEM high glucose, 10% FBS, 1% PSA, 400 μg/ml geneticin and 50 μg/ml hygromycin. Appropriate positive control chemokines (MCP-1, MIP1A or RANTES) was used as the positive control agonist for screening compound-induced calcium activity assayed on the FLIPR^Tetra. The drug plates were prepared in 384-well microplates using the EP3 and the MultiPROBE robotic liquid handling systems. Compounds were synthesized and tested for CCR2 activity.

[1] = HEK-Gqi5 cells stably expressing CCR2, calcium activity, FLIPR Tetra
[2] = HEK-Gqi5 cells stably expressing CCR2, calcium activity, FLIPR Tetra, read-out: CCR2 IC50

T1 sequence (P41597 whole entry): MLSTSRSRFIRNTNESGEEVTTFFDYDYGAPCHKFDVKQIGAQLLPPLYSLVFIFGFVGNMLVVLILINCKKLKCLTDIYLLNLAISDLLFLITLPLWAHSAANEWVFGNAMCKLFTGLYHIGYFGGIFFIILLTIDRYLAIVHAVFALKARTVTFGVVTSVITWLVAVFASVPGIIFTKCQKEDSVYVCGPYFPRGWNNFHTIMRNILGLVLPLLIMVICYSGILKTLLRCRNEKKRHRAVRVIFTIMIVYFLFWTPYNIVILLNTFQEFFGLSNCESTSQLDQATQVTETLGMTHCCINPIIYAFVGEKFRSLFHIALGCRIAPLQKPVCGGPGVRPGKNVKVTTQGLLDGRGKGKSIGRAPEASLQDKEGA

| Structure (SMILES) | CCR2 % ANTAGONISM [1] | IC50 [2] | IC50 |
| --- | --- | --- | --- |
| CP(=O)(c1ccc(Cl)cc1NS(=O)(=O)c1ccc(Cl)c(C(F)(F)F)c1)N1CCOCC1 (centres unmarked) [Compound 6, 4-Chloro-N-{5-chloro-2-[methyl(morpholin-4-yl)phosphoryl]phenyl}-3-(trifluoromethyl)benzenesulfonamide] | 93% | 15 nM |  |
| CCOP(=O)(c1ccc(Cl)cc1NS(=O)(=O)c1ccc(Cl)c(C(F)(F)F)c1)N1CCOCC1 (centres unmarked) [Compound 11, Ethyl [4-chloro-2-({[4-chloro-3-(trifluoromethyl)phenyl]sulfonyl}amino)phenyl]morpholin-4-ylphosphinate] | 65% | 150 nM |  |
| CCOP(C)(=O)c1ccc(Cl)cc1NS(=O)(=O)c1ccc(Cl)c(C(F)(F)F)c1 (centres unmarked) [Compound 1, Ethyl [4-chloro-2-({[4-chloro-3-(trifluoromethyl)phenyl]sulfonyl}amino)phenyl]methylphosphinate] | 80% |  | 159 nM |
| CP(C)(=O)c1ccc(Cl)cc1NS(=O)(=O)c1ccc(Cl)c(C(F)(F)F)c1 [Compound 15, 4-Chloro-N-[5-chloro-2-(dimethylphosphoryl)phenyl]-3-(trifluoromethyl)benzenesulfonamide] | 92% | 125 nM |  |
| CCCCOP(=O)(c1ccc(Cl)cc1NS(=O)(=O)c1ccc(Cl)c(C(F)(F)F)c1)N1CCC(=O)CC1 (centres unmarked) [Compound 10, Butyl [4-chloro-2-({[4-chloro-3-(trifluoromethyl)phenyl]sulfonyl}amino)phenyl](4-oxopiperidin-1-yl)phosphinate] | 84% | 537 nM |  |
| CP(=O)(c1ccc(Cl)cc1NS(=O)(=O)c1ccc(Cl)c(C(F)(F)F)c1)N1CCC(=O)CC1 (centres unmarked) [Compound 7, 4-Chloro-N-{5-chloro-2-[methyl(4-oxopiperidin-1-yl)phosphoryl]phenyl}-3-(trifluoromethyl)benzenesulfonamide] | 87% | 25 nM |  |
| COP(=O)(c1ccc(Cl)cc1NS(=O)(=O)c1ccc(Cl)c(C(F)(F)F)c1)N1CCC(=O)CC1 (centres unmarked) [Compound 12, Methyl [4-chloro-2-({[4-chloro-3-(trifluoromethyl)phenyl]sulfonyl}amino)phenyl](4-oxopiperidin-1-yl)phosphinate] | 95% | 124 nM |  |
